Data from patent US20260242359A1, “IRHOM2 INHIBITORS AND USES THEREOF” (NEW YORK SOCIETY FOR THE RELIEF OF THE RUPTURED AND …, priority 2023, published 2026).

Experiments:
Type in all cases: cell-based
[1] = test system: TNFα release from LPS-stimulated THP-1 cells (iRhom2/ADAM17-dependent); experiment: Primary screen (Example 1a): LPS-stimulated TNFα release from THP-1 cells, HTRF; conditions: Homo sapiens, LPS 100 ng/mL, 3 h, normalized against 50 μM Batimastat, read-out: Primary Screen XC50 TNFα
Procedure: (§1) Two separate screens to identify novel small molecule inhibitors of iRhom2/ADAM17 activity were developed. […] Therefore, the primary screen for small molecule inhibitors of iRhom2/ADAM17 was a screen for inhibitors that blocked the release of TNFα from LPS-stimulated THP-1 human myeloid cells, a process that depends on iRhom2 and ADAM17. […]
THP-1 cells were plated in 384 or 1,536 wells and transferred on the ultra-high throughput screening (uHTS) platform Mark III, and TNFα shedding was initiated by LPS stimulation of THP-1 cells. The extent of released TNFα was detected with the corresponding HTRF antibodies labeled with europium cryptate (donor) and d2 (acceptor). […]
7.5 nL compound and controls in DMSO [10 μM in assay; 0.25% DMSO in 3 μL Assay] were dissolved in 2 μL cell suspension [2.4E6/mL; 4800 cells/well; culture w/o PenStrep], pre-incubated at 37° C., 5% CO2, for 15 min with 1 μL LPS [100 ng/mL in 3 μL assay]. […] After an incubation at room temperature for 2 h or longer, the HTRF readout was performed. […]

[2] = test system: PMA-stimulated KL2 release from HEK-293 cells (iRhom2/ADAM17 selective substrate); experiment: Secondary screen (Example 3a): PMA-stimulated KL2 release from HEK-293 cells, AP readout; conditions: Homo sapiens, HEK293, HEK-293 cells expressing KL2-AP, PMA 500 ng/mL, 2 h, read-out: Secondary Screen XC50 KL2
From the text: as §1
(§2) First, expression plasmids for alkaline phosphatase (AP)-fused KL2 and TGFα were designed and generated through gene synthesis followed by subcloning into the pcDNA3.1(+)/Hygro expression vector. […] During cell culturing, cell density and viability were monitored to ensure optimal conditions for the transfections. After PMA stimulation, AP-coupled KL2 or TGFα were detected by measurement of AP activity in the supernatant. […]
(§3) After electroporation, cells were further cultured in presence of selection antibiotics, hygromycin B, to generate stably transfected polyclonal cell pools. […] Final assay conditions were determined for the selected pools. […]
60 μL of cells (40,000/well) were added to a sterile 384-well plate. […] The reaction was stopped by addition of 20 μL of NaOH (1 M final conc.) and the absorbance of pNP was measured at 405 nm.

[3] = test system: PMA-stimulated TGFα release from HEK-293 cells (substrate of iRhom1/ADAM17 and iRhom2/ADAM17); experiment: Counter screen (Example 4a): PMA-stimulated TGFα release from HEK-293 cells, AP readout; conditions: Homo sapiens, HEK293, HEK-293 cells expressing TGFα-AP, PMA 100 ng/mL, 2 h, read-out: Counter Screen XC50 TGFα
Procedure: A tertiary counterscreen was also performed to monitor the release of TGFα, which is a substrate of iRhom1/ADAM17 and iRhom2/ADAM17, so its release should not be blocked by an iRhom2-selective inhibitor (Maretzky T et al. (July 2013), “iRhom2 controls the substrate selectivity of stimulated ADAM117-dependent ectodomain shedding”, PNAS 110(28): 11433-11438; and Li X et al. (May 2015), “iRhoms 1 and 2 are essential upstream regulators of ADAM17-dependent EGFR signaling”, PNAS 112(19): 6080-6085).
as §2, §3
60 μL of cells (20,000/well) were added to a sterile 384-well plate. […] The reaction was stopped by addition of 20 μL of NaOH (1 M final conc.) and the absorbance of pNP was measured at 405 nm.

Row | Compound | IC50 [1] | IC50 [2] | IC50 [3]
1 | CCC(=O)NCCc1c(/C=C2/C(=O)NC(=O)N(c3ccc(C)cc3C)C2=O)[nH]c2ccccc12 [Compound 1] | < 802 nM | > 128 µM | 12.6 µM
2 | CCOC(=O)c1ccc(Nc2nc3nonc3n3nnnc23)cc1 [Compound 2] | < 802 nM | > 128 µM | 9.91 µM
